Like-named read-outs stand apart in the source and are kept apart here.

One assay deals with S. aureus MB-3648. Description: Disc agar diffusion test, potentiation of Pen G and ampicillin. It is filed as cell-based, Staphylococcus aureus MB-3648.
The next assay relates to S. aureus MB-3649. The assay is described as above. It is filed as cell-based, Staphylococcus aureus MB-3649.
The next assay deals with Vibrio percolans MB-1272. Briefly: Bilayer agar diffusion test, potentiation of Pen G in the presence of penicillinase. The format is cell-based. Background: A growth-free zone around the sample is the usual read-out of agar diffusion tests.
In assay [1] the test system is two penicillinase-producing animal-pathogenic strains of Staphylococcus aureus. It is filed as cell-based, Staphylococcus aureus MB-3648 and MB-3649.
Where [2] appears, read: Ampicillin 15.7 μg/ml plus 4 μg/ml clavulanic acid.
Where [3] appears, read: Ampicillin 15.7 μg/ml plus 32 μg/ml 6 BPA.
The mark [4] stands for this setting: Ampicillin 31.3 μg/ml plus 4 μg/ml clavulanic acid.
Where [5] appears, read: Ampicillin 31.3 μg/ml plus 32 μg/ml 6 BPA.
The mark [6] stands for this setting: Ampicillin 62.5 μg/ml plus 4 μg/ml clavulanic acid.
[7] abbreviates: Ampicillin 62.5 μg/ml plus 32 μg/ml 6 BPA.
The mark [8] stands for this setting: Ampicillin 125 μg/ml plus 4 μg/ml clavulanic acid.
[9] abbreviates: Ampicillin 125 μg/ml plus 32 μg/ml 6 BPA.
The mark [10] stands for this setting: Ampicillin 250 μg/ml plus 4 μg/ml clavulanic acid.
Where [11] appears, read: Ampicillin 250 μg/ml plus 32 μg/ml 6 BPA.
[12] abbreviates: subinhibitory concentration (1/4 MZC), extrapolated on standard/regression curve.

With `CC1(C)S[C@@H]2[C@H](NC(=O)[C@H](N)c3ccccc3)C(=O)N2[C@H]1C(=O)O` [Ampicillin], the Inhibition Zone Diameter, plus Clavulanic Ac with S. aureus MB-3648 (setting [2]) was 22 mm; with S. aureus MB-3648 (setting [4]) it was 23 mm; in the assay with S. aureus MB-3648 (setting [6]) it was 26 mm; in the assay on S. aureus MB-3648 (setting [8]), 27 mm; in the assay on S. aureus MB-3648 (setting [10]), 27 mm; in the assay with S. aureus MB-3649 (setting [2]), 20 mm. Besides, the Inhibition Zone Diameter, plus Clavulanic Ac is 23 mm in the assay on S. aureus MB-3649 (setting [4]), 24 mm in the assay on S. aureus MB-3649 (setting [6]), 25 mm in the assay with S. aureus MB-3649 (setting [8]) and 24 mm in the assay on S. aureus MB-3649 (setting [10]). Moreover, the Inhibition Zone Diameter, plus 6 BPA in the assay with S. aureus MB-3648 (setting [3]) came out at 23 mm; with S. aureus MB-3648 (setting [5]), 23 mm; in the assay on S. aureus MB-3648 (setting [7]) it was 24 mm; with S. aureus MB-3648 (setting [9]), 25 mm; in the assay on S. aureus MB-3648 (setting [11]) it was 26 mm; with S. aureus MB-3649 (setting [3]), 19 mm. Also, the Inhibition Zone Diameter, plus 6 BPA turned out to be 21 mm in the assay with S. aureus MB-3649 (setting [5]), 23 mm with S. aureus MB-3649 (setting [7]), 24 mm with S. aureus MB-3649 (setting [9]) and 29 mm in the assay with S. aureus MB-3649 (setting [11]). In addition, the zone of inhibition at 15.7 µg/mL stood at 0 mm in the assay on S. aureus MB-3648 (Staphylococcus aureus, MB3648, Ampicillin 15.7 μg/ml, read-out: Inhibition Zone Diameter, alone) and 0 mm in the assay on S. aureus MB-3649 (Staphylococcus aureus, MB3649, Ampicillin 15.7 μg/ml, read-out: Inhibition Zone Diameter, alone). For the same compound, the zone of inhibition at 31.3 µg/mL was 0 mm with S. aureus MB-3648 (Staphylococcus aureus, MB3648, Ampicillin 31.3 μg/ml, read-out: Inhibition Zone Diameter, alone) and 0 mm with S. aureus MB-3649 (Staphylococcus aureus, MB3649, Ampicillin 31.3 μg/ml, read-out: Inhibition Zone Diameter, alone). Also, the zone of inhibition at 62.5 µg/mL in the assay on S. aureus MB-3648 (Staphylococcus aureus, MB3648, Ampicillin 62.5 μg/ml, read-out: Inhibition Zone Diameter, alone) turned out to be 0 mm; with S. aureus MB-3649 (Staphylococcus aureus, MB3649, Ampicillin 62.5 μg/ml, read-out: Inhibition Zone Diameter, alone), 0 mm. Further, the zone of inhibition at 125 µg/mL is 18 mm with S. aureus MB-3648 (Staphylococcus aureus, MB3648, Ampicillin 125 μg/ml, read-out: Inhibition Zone Diameter, alone) and 17 mm in the assay on S. aureus MB-3649 (Staphylococcus aureus, MB3649, Ampicillin 125 μg/ml, read-out: Inhibition Zone Diameter, alone). Also, the zone of inhibition at 250 µg/mL in the assay on S. aureus MB-3648 (Staphylococcus aureus, MB3648, Ampicillin 250 μg/ml, read-out: Inhibition Zone Diameter, alone) turned out to be 20 mm; with S. aureus MB-3649 (Staphylococcus aureus, MB3649, Ampicillin 250 μg/ml, read-out: Inhibition Zone Diameter, alone), 18 mm. For the same compound, the zone of inhibition at 500 µg/mL with S. aureus MB-3648 (Staphylococcus aureus, MB3648, Ampicillin 500 μg/ml, read-out: Inhibition Zone Diameter, alone) came to 23 mm; with S. aureus MB-3649 (Staphylococcus aureus, MB3649, Ampicillin 500 μg/ml, read-out: Inhibition Zone Diameter, alone), 20 mm. In addition, the zone of inhibition at 1000 µg/mL in the assay with S. aureus MB-3648 (Staphylococcus aureus, MB3648, Ampicillin 1000 μg/ml, read-out: Inhibition Zone Diameter, alone) is 26 mm; with S. aureus MB-3649 (Staphylococcus aureus, MB3649, Ampicillin 1000 μg/ml, read-out: Inhibition Zone Diameter, alone) it was 25 mm.
As to `O=C(O)[C@H]1/C(=C/CO)O[C@@H]2CC(=O)N21` [Clavulanic Acid], the “Zone of inhibition, Antibiotic + Penase + Pen G” value was determined as 0 mm in the assay with Vibrio percolans MB-1272 (1 μg/ml, Penase 10^4 units/ml, Pen G 5 μg/ml); 0 mm in the assay on Vibrio percolans MB-1272 (2 μg/ml, Penase 10^4 units/ml, Pen G 5 μg/ml); 0 mm with Vibrio percolans MB-1272 (4 μg/ml, Penase 10^4 units/ml, Pen G 5 μg/ml); 0 mm with Vibrio percolans MB-1272 (8 μg/ml, Penase 10^4 units/ml, Pen G 5 μg/ml); 10 mm with Vibrio percolans MB-1272 (16 μg/ml, Penase 10^4 units/ml, Pen G 5 μg/ml); 21 mm in the assay with Vibrio percolans MB-1272 (31 μg/ml, Penase 10^4 units/ml, Pen G 5 μg/ml). For the same compound, the zone of inhibition at 1 µg/mL with Vibrio percolans MB-1272 (Comamonas terrigena, MB1272, 1 μg/ml, Penase 10^4 units/ml, read-out: Zone of inhibition, Antibiotic + Penase) was 0 mm; in the assay with Vibrio percolans MB-1272 (Comamonas terrigena, MB1272, 1 μg/ml, read-out: Zone of inhibition, Antibiotic Alone), 0 mm. In addition, the zone of inhibition at 2 µg/mL stood at 0 mm with Vibrio percolans MB-1272 (Comamonas terrigena, MB1272, 2 μg/ml, Penase 10^4 units/ml, read-out: Zone of inhibition, Antibiotic + Penase) and 0 mm in the assay on Vibrio percolans MB-1272 (Comamonas terrigena, MB1272, 2 μg/ml, read-out: Zone of inhibition, Antibiotic Alone). For the same compound, the zone of inhibition at 4 µg/mL with Vibrio percolans MB-1272 (Comamonas terrigena, MB1272, 4 μg/ml, Penase 10^4 units/ml, read-out: Zone of inhibition, Antibiotic + Penase) stood at 0 mm; in the assay on Vibrio percolans MB-1272 (Comamonas terrigena, MB1272, 4 μg/ml, read-out: Zone of inhibition, Antibiotic Alone), 0 mm. Also, the zone of inhibition at 8 µg/mL in the assay on Vibrio percolans MB-1272 (Comamonas terrigena, MB1272, 8 μg/ml, read-out: Zone of inhibition, Antibiotic Alone) amounted to 0 mm. In addition, the zone of inhibition at 16 µg/mL was determined as 10 mm in the assay with Vibrio percolans MB-1272 (Comamonas terrigena, MB1272, 16 μg/ml, Penase 10^4 units/ml, read-out: Zone of inhibition, Antibiotic + Penase) and 8 mm with Vibrio percolans MB-1272 (Comamonas terrigena, MB1272, 16 μg/ml, read-out: Zone of inhibition, Antibiotic Alone). Moreover, the zone of inhibition at 31 µg/mL was determined as 21 mm with Vibrio percolans MB-1272 (Comamonas terrigena, MB1272, 31 μg/ml, Penase 10^4 units/ml, read-out: Zone of inhibition, Antibiotic + Penase) and 20 mm in the assay on Vibrio percolans MB-1272 (Comamonas terrigena, MB1272, 31 μg/ml, read-out: Zone of inhibition, Antibiotic Alone). Moreover, the “Concentration required to produce a zone of inhibition in the presence of Pen G and Penase” value with Vibrio percolans MB-1272 (Pen G 5 μg/ml, Penase 10^4 units/ml) turned out to be 16 µg/mL. The “Amount of clavulanic acid required relative to 6 BPA to produce a zone of inhibition” value in the assay with Vibrio percolans MB-1272 (in the presence of Pen G and Penase) is on record as 64 times. In assay [1] (setting [12]), the “Potentiation of Pen G” value is reported as 64 fold. Moreover, the Potentiation of ampicillin in assay [1] (setting [12]) was 32 fold. The “1/4 of minimum zone-inducing concentration (1/4MZC)” value in assay [1] (substance alone vs either MB3648 or MB3649) was found to be 4 µg/mL.
In the case of `CC1(C)S[C@@H]2[C@H](NC(=O)Cc3ccccc3)C(=O)N2[C@H]1C(=O)O` [Pen G], the zone of inhibition at 5 µg/mL in the assay with Vibrio percolans MB-1272 (Comamonas terrigena, MB1272, Penase 10^4 units/ml, Pen G 5 μg/ml, no inhibitor, read-out: Zone of inhibition, Penase + Pen G Alone) came to 0 mm.

Values taken from US4180506A, “6β-Bromo penicillanic acid” (priority 1978, dated 1979).
